“Also recorded” adds a separate entry of the source. Read-outs that look alike come from different tables or passages of the source. Non-standard residues stand in square brackets, D forms with d. Residues, ends and D or L forms follow the SMILES beside them. *: point of attachment. AMC = Cc1cc(=O)oc2cc(N*)ccc12; pGlu = O=C1CC[C@@H](C(=O)O)N1
Key:
[1] = molecular target: T1, TRHR1 (GH4 pituitary cell line, naturally expresses TRHR1) (Rattus norvegicus, UniProt Q01717); conditions: Scalabrino 2007, Hogan 2008; cited from earlier work
T1 construct: a GH4 pituitary cell line, which naturally expresses TRHR1; endogenous in cells; host or cells: GH4 pituitary cell membranes
T1 sequence (Q01717 1-412): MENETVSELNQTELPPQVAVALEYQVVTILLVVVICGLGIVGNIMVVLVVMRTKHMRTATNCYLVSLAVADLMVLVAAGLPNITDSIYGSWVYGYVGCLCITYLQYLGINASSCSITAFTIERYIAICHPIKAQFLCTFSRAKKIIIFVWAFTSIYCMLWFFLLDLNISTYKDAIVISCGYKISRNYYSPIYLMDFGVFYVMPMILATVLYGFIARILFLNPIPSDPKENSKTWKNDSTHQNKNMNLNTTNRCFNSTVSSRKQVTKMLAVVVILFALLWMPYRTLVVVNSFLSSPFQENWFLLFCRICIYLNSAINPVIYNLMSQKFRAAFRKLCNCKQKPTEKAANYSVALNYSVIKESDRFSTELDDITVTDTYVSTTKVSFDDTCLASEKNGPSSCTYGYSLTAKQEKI

[2] = molecular target: T1, TRHR1 (GH4 pituitary cell line, naturally expresses TRHR1); assay: Displacement of [3H][3-Me-His2]TRH, GH4 cell membranes; type: binding; conditions: N = 2; read-out: IC50, displacement of [^3H][3-Me-His^2]TRH, GH4 cell membranes
[3] = molecular target: T2, TRH receptors in human pituitary tissue (Homo sapiens, UniProt P34981); assay: Competition binding with [3H][3-Me-His2]TRH, human pituitary tissue membranes
T2 construct: from tissue; host or cells: human pituitary membranes from individual donors
T2 sequence (P34981 1-398): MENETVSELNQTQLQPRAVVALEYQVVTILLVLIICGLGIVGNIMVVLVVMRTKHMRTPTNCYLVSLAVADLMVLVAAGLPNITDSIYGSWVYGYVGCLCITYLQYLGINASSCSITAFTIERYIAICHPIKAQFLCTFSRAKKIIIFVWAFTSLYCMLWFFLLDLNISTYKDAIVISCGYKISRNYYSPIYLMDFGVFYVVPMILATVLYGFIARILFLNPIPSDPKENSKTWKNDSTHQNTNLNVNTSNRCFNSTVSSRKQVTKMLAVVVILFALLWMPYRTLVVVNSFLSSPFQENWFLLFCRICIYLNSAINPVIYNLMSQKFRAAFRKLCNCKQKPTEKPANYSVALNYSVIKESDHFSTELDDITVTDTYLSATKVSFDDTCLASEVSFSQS
Procedure: To investigate the binding of Glp-Asn-Pro-D-Tyr-D-TrpNH2 in human tissue, radioligand binding studies were carried out employing [^3H][3-Me-His^2]TRH to label TRH receptors in cortical, hippocampal, spinal cord and pituitary tissue membranes from human tissue.
(§1) Competition binding assays using human tissue prepared from individual donors with no history of neurological disease were carried out essentially as previously described (Kelly et al., 2002; Scalabrino et al., 2007; Hogan et al., 2008) by incubating membrane suspension, [^3H][3-Me-His^2]TRH, and increasing concentrations of peptide for 5 h at 4° C. Non-specific binding (NSB) was determined in the presence of 10 μM TRH. Separation of bound and free ligand was achieved by vacuum filtration through GF/C or GF/B filters, followed by washing with 3×5 ml of ice-cold NaCl or Tris-HCl buffer. The radioactivity retained on the filters was measured by liquid scintillation counting.

[4] = molecular target: [^3H][3-Me-His^2]TRH-labelled native TRH receptors in rat cortical membranes; assay: Displacement of [3H][3-Me-His2]TRH, native rat cortical membranes; type: binding; conditions: native rat tissue; N = 3-6
[5] = system: [^3H][3-Me-His^2]TRH-labelled native TRH receptors in rat cortical membranes; conditions: cited from earlier work
[6] = molecular target: [^3H][3-Me-His^2]TRH-labelled native TRH receptors in rat hippocampal membranes; assay: Displacement of [3H][3-Me-His2]TRH, native rat hippocampal membranes; type: binding; conditions: native rat tissue; N = 3-6
TRHR1 [7] = conditions: Scalabrino 2007, Hogan 2008; cited from earlier work
[8] = system: [^3H][3-Me-His^2]TRH-labelled native TRH receptors in rat hippocampal membranes; conditions: Scalabrino 2007, Hogan 2008; cited from earlier work
[9] = molecular target: T3, TRH receptors in rat pituitary tissue (Rattus norvegicus, UniProt Q01717); conditions: cited from earlier work
T3 construct: host or cells: rat pituitary tissue
T3 sequence (Q01717 1-412): T1 sequence (Q01717 1-412)

TRHR2 = molecular target: T4, TRHR2 (Rattus norvegicus, UniProt A6IZR3); conditions: Scalabrino 2007, Hogan 2008; cited from earlier work
T4 construct: host or cells: CHO cells expressing TRHR2
T4 sequence (A6IZR3 1-352): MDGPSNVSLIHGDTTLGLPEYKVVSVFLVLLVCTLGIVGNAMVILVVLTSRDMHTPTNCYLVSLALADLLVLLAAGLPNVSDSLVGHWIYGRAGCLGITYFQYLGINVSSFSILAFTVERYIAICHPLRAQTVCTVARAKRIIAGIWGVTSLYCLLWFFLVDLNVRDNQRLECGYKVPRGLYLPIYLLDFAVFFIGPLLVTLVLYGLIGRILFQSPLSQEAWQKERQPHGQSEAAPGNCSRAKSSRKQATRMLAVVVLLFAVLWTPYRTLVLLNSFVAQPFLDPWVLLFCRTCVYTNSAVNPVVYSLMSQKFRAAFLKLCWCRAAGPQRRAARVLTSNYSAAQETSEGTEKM

[10] = system: TRH receptors in human CNS tissue (cortical, hippocampal, spinal cord); assay: Competition binding with [3H][3-Me-His2]TRH, human CNS tissue membranes; conditions: for IC50: 5 h at 4° C.
Procedure: as §1, with “Hogan et al., 2008) by incubating membrane suspension, [^3H][3-Me-His^2]TRH, and increasing concentrations of peptide for 5 h at 4° C. Non-specific binding (NSB) was determined in the presence of 10 μM TRH.” left out

TRHR1 [11] = assay: Displacement of [3H][3-Me-His2]TRH, membranes from CHO cells transfected with TRHR1; type: binding; conditions: N = 2; read-out: IC50, displacement of [^3H][3-Me-His^2]TRH, membranes from Chinese Hamster Ovary cells transfected with TRHR1
[12] = molecular target: TRH receptors in human amygdala; conditions: saturable binding; prior studies; read-out: Kd of radioligand binding in human amygdala; cited from earlier work
[13] = human CNS tissue, read-out: IC50, displacement of [^3H][3-Me-His^2]TRH from CNS tissue

| Molecule | IC50 [2] | Ki [4] | Ki [6] | IC50 (TRHR1 [11]) | also measured |
| --- | --- | --- | --- | --- | --- |
| NC(=O)C[C@H](NC(=O)[C@@H]1CCC(=O)N1)C(=O)N1CCC[C@H]1C(=O)N[C@H](Cc1ccc(O)cc1)C(=O)N[C@H](Cc1c[nH]c2ccccc12)C(N)=O [Glp-Asn-Pro-D-Tyr-D-TrpNH2] ([pGlu]NP[dY][dW]-NH2) | > 100000 nM | 6.8 nM | 11 nM | > 100000 nM | displacement of [^3H][3-Me-His^2]TRH binding from GH4 membranes (in words) [1]: does not displace; binding to TRH receptors in human pituitary (in words) ([3]; human pituitary): not pituitary; displacement of [^3H][3-Me-His^2]TRH binding from human pituitary (in words) ([3]; human pituitary membranes): does not displace; also recorded: did not displace; affinity for [^3H][3-Me-His^2]TRH-labelled native TRH receptors, rat cortical tissue homogenate (in words) ([5]; Scalabrino 2007, Hogan 2008): high affinity; displacement of [^3H][3-Me-His^2]TRH binding from CHO-TRHR1 membranes (in words) (TRHR1 [7]): does not displace; affinity for [^3H][3-Me-His^2]TRH-labelled native TRH receptors, rat hippocampal tissue homogenate (in words) [8]: high affinity; displacement of [^3H][3-Me-His^2]TRH binding from native rat pituitary tissue (in words) ([9]; Scalabrino 2007, Hogan 2008): does not displace; displacement of [^3H][3-Me-His^2]TRH binding from CHO-TRHR2 membranes (in words) (TRHR2): does not displace; displacement of [^3H][3-Me-His^2]TRH binding from human CNS tissue (in words) ([10]; human CNS tissue): found to displace; IC50 [10, 13]: ~100 nM; binding to TRH receptors in human brain and spinal cord (in words) ([10]; human brain and spinal cord): binds; IC50 ([10]; human hippocampal membranes, read-out: IC50, displacement of [^3H][3-Me-His^2]TRH from hippocampal membranes): ~10 nM |
| Cc1cc(=O)oc2cc(NC(=O)[C@@H](Cc3c[nH]c4ccccc34)NC(=O)[C@@H](Cc3ccc(O)cc3)NC(=O)[C@@H]3CCCN3C(=O)[C@H](CC(N)=O)NC(=O)[C@@H]3CCC(=O)N3)ccc12 [Glp-Asn-Pro-DTyr-DTrp-AMC] ([pGlu]NP[dY][dW]-{AMC}) | > 100000 nM | 1.7 nM | 22 nM | – | – |
| Cc1cc(=O)oc2cc(NC(=O)[C@@H](Cc3c[nH]c4ccccc34)NC(=O)[C@@H](Cc3c[nH]c4ccccc34)NC(=O)[C@@H](Cc3ccc(O)cc3)NC(=O)[C@@H]3CCCN3C(=O)[C@H](CC(N)=O)NC(=O)[C@@H]3CCC(=O)N3)ccc12 [Glp-Asn-Pro-DTyr-DTrp-DTrp-AMC] ([pGlu]NP[dY][dW][dW]-{AMC}) | > 100000 nM | 25 nM | 30 nM | – | – |
| Cc1cc(=O)oc2cc(NC(=O)[C@H](Cc3c[nH]c4ccccc34)NC(=O)[C@H](Cc3ccc(O)cc3)NC(=O)[C@@H]3CCCN3C(=O)[C@H](CC(N)=O)NC(=O)[C@@H]3CCC(=O)N3)ccc12 [Glp-Asn-Pro-LTyr-LTrp-AMC] ([pGlu]NPYW-{AMC}) | > 100000 nM | 330 nM | 80 nM | – | – |
| Cc1cc(=O)oc2cc(NC(=O)[C@H](Cc3c[nH]c4ccccc34)NC(=O)[C@H](Cc3c[nH]c4ccccc34)NC(=O)[C@H](Cc3ccc(O)cc3)NC(=O)[C@@H]3CCCN3C(=O)[C@H](CC(N)=O)NC(=O)[C@@H]3CCC(=O)N3)ccc12 [Glp-Asn-Pro-LTyr-LTrp-LTrp-AMC] ([pGlu]NPYWW-{AMC}) | > 100000 nM | – | 8.8 nM | – | – |
| NC(=O)C[C@H](NC(=O)[C@@H]1CCC(=O)N1)C(=O)N1CCC[C@H]1C(=O)N[C@@H](Cc1ccc(O)cc1)C(=O)N[C@@H](Cc1c[nH]c2ccccc12)C(N)=O [Glp-Asn-Pro-LTyr-LTrp-NH2] ([pGlu]NPYW-NH2) | > 100000 nM | 110 nM | 120 nM | > 100000 nM | – |
| NC(=O)[C@@H]1CCCN1C(=O)[C@H](Cc1cnc[nH]1)NC(=O)[C@@H]1CCC(=O)N1 [TRH, Thyrotropin releasing hormone, reference compound] | – | – | – | – | IC50 ([3]; human pituitary, 5 h at 4° C., read-out: IC50, displacement of [^3H][3-Me-His^2]TRH from pituitary tissue): ~10 nM; Ki ([5]; prior studies, read-out: Ki, competition for [^3H][3-Me-His^2]TRH sites on rat brain cortical membranes): ~25 nM; IC50 [10, 13]: ~10 nM |
| Cn1cnc(C[C@H](NC(=O)[C@@H]2CCC(=O)N2)C(=O)N2CCC[C@H]2C(N)=O)c1 [[3-Me-His2]TRH, reference compound] | 11.2 nM | 74 nM | 34 nM | 17.5 nM | – |
| [^3H][3-Me-His^2]TRH | – | – | – | – | Kd ([5]; single population of high affinity sites, prior studies, read-out: Kd of radioligand binding, rat brain cortical membranes): ~5 nM; Kd [12]: 7 to 10 nM; Kd ([9]; single population of high-affinity sites, prior studies, read-out: Kd of radioligand binding, rat pituitary tissue): 2.2 nM |

Source: US9873717B2, “TRH binding site in human CNS” (THE PROVOST, FELLOWS, FOUNDATION SCHOLARS, AND THE OTHER …, priority 2012, dated 2018)
